Experimental data published in BindingDB's records for patent US9695131 (Bayer Pharma Aktiengesellschaft, 2017).
“And” between values parts separate entries of the source, which are not always exact repeats. Equal entries are not always repeated.

Molecular target: T1, chymase (Golden hamster, UniProt A0A1U7QTH6)
T1 sequence (A0A1U7QTH6 whole entry): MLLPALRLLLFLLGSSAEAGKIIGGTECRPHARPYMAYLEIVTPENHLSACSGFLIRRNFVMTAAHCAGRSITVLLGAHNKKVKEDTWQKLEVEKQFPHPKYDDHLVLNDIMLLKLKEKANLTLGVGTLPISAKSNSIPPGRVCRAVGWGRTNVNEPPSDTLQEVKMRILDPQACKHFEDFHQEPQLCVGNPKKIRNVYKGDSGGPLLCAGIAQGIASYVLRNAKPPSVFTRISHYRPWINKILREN
Assay: Enzymatic Chymase Assay
Settings: pH 7.5

Row | Structure (SMILES) | IC50
1 | Cn1c(=O)sc2cc(-n3cc(C#N)c(=O)n(C4CCc5c(Cl)cccc54)c3=O)ccc21 (racemic) [US9695131, 8] | 53 nM
2 | Cc1c(C#N)c(=O)n([C@@H]2CCc3c2cccc3C(F)(F)F)c(=O)n1-c1ccc2c(c1)oc(=O)n2C [US9695131, 12] | 7.6 nM
3 | Cn1c(=O)oc2cc(-n3cc(C(N)=O)c(=O)n([C@@H]4CCc5c4cccc5C(F)(F)F)c3=O)ccc21 [US9695131, 41] | 12 nM
4 | Cn1c(=O)oc2cc(-n3cc(-c4nnn[nH]4)c(=O)n([C@@H]4CCc5c4cccc5C(F)(F)F)c3=O)ccc21 [US9695131, 14] | 3.5 nM
5 | Cn1c(=O)n(C)c2cc(-n3cc(-c4nnn[nH]4)c(=O)n(C4CCc5c(Cl)cccc54)c3=O)ccc21 (centres undefined) [US9695131, 18] | 4.6 nM and 2.8 nM
6 | Cn1c(=O)oc2cc(-n3cc(-c4nnn[nH]4)c(=O)n(C4CCCc5c(Cl)cccc54)c3=O)ccc21 (racemic) [US9695131, 30] | 13 nM
7 | Cc1c(Cn2c(=O)c(-c3nnn[nH]3)cn(-c3ccc(N4CCOC4=O)cc3)c2=O)cccc1C(F)(F)F [US9695131, 25] | 30 nM
8 | Cn1c(=O)sc2cc(-n3cc(C#N)c(=O)n([C@@H]4CCc5c4cccc5C(F)(F)F)c3=O)ccc21 [US9695131, 3] | 8.7 nM
9 | Cn1c(=O)sc2cc(-n3cc(-c4nnn[nH]4)c(=O)n([C@@H]4CCc5c4cccc5C(F)(F)F)c3=O)ccc21 [US9695131, 15] | 2.8 nM
10 | Cc1c(Cn2c(=O)c(C#N)cn(-c3ccc(N4CCOC4=O)cc3)c2=O)cccc1C(F)(F)F [US9695131, 5] | 29 nM
11 | Cn1c(=O)oc2cc(-n3cc(-c4noc(=O)[nH]4)c(=O)n([C@@H]4CCc5c4cccc5C(F)(F)F)c3=O)ccc21 [US9695131, 38] | 8.1 nM
12 | Cc1c(Cn2c(=O)c(-c3noc(=O)[nH]3)cn(-c3ccc(N4CCNC4=O)cc3)c2=O)cccc1C(F)(F)F [US9695131, 34] | 55 nM
13 | COc1ccc(-n2cc(-c3nnn[nH]3)c(=O)n(Cc3cccc(Cl)c3Cl)c2=O)cc1 [US9695131, 27] | 130 nM
14 | COc1ccc(-n2cc(-c3nnn[nH]3)c(=O)n(Cc3cccc(C(F)(F)F)c3C)c2=O)cc1OC [US9695131, 20] | 22 nM
15 | Cn1c(=O)sc2cc(-n3cc(C(N)=O)c(=O)n([C@@H]4CCc5c4cccc5C(F)(F)F)c3=O)ccc21 [US9695131, 42] | 9.8 nM
16 | COc1ccc(-n2cc(-c3nnn[nH]3)c(=O)n(Cc3cccc(C(F)(F)F)c3Cl)c2=O)cc1 [US9695131, 26] | 44 nM
17 | Cn1c(=O)sc2cc(-n3cc(-c4nnn[nH]4)c(=O)n(C4CCc5c(Cl)cccc54)c3=O)ccc21 (racemic) [US9695131, 23] | 7.3 nM
18 | Cc1c(Cn2c(=O)c(-c3nnn[nH]3)cn(-c3ccc(N4CCNC4=O)cc3)c2=O)cccc1C(F)(F)F [US9695131, 21] | 32 nM
19 | Cn1c(=O)n(C)c2cc(-n3cc(C#N)c(=O)n(C4CCc5c(Cl)cccc54)c3=O)ccc21 (racemic) [US9695131, 7] | 37 nM
20 | Cc1c(Cn2c(=O)c(-c3noc(=O)[nH]3)cn(-c3ccc(N4CCOC4=O)cc3)c2=O)cccc1C(F)(F)F [US9695131, 35] | 36 nM
21 | COc1ccc(-n2cc(C(=O)NCCC(=O)O)c(=O)n(Cc3cccc(Cl)c3Cl)c2=O)cc1 [US9695131, 59] | 914 nM
22 | COc1ccc(-n2cc(-c3noc(=O)[nH]3)c(=O)n(Cc3cccc(C(F)(F)F)c3C)c2=O)cc1 [US9695131, 37] | 76 nM
23 | Cn1c(=O)oc2cc(-n3cc(C#N)c(=O)n([C@@H]4CCc5c4cccc5C(F)(F)F)c3=O)ccc21 [US9695131, 2] | 18 nM
24 | Cc1c(Cn2c(=O)c(-c3nsc(=O)[nH]3)cn(-c3ccc(N4CCOC4=O)cc3)c2=O)cccc1C(F)(F)F [US9695131, 39] | 16 nM

More lines, now with the values ahead:

Row | IC50 | Structure (SMILES)
25 | 2.6 nM | Cn1c(=O)oc2cc(-n3cc(C(=O)NC#N)c(=O)n([C@@H]4CCc5c4cccc5C(F)(F)F)c3=O)ccc21 [US9695131, 63]
26 | 3.6 nM | Cc1c(Cn2c(=O)c(C(=O)NC(C)(C)C(=O)O)cn(-c3ccc4c(c3)n(C)c(=O)n4C)c2=O)cccc1C(F)(F)F [US9695131, 49]
27 | 180 nM | COC(=O)CCNC(=O)c1cn(-c2ccc(N3CCNC3=O)cc2)c(=O)n(Cc2cccc(C(F)(F)F)c2C)c1=O [US9695131, 53]
28 | 39 nM | CCOC(=O)C1(NC(=O)c2cn(-c3ccc4c(c3)n(C)c(=O)n4C)c(=O)n(Cc3cccc(C(F)(F)F)c3C)c2=O)CCC1 [US9695131, 50]
29 | 4.9 nM | Cc1c(Cn2c(=O)c(-c3noc(=O)[nH]3)cn(-c3ccc4c(c3)n(C)c(=O)n4C)c2=O)cccc1C(F)(F)F [US9695131, 33]
30 | 35 nM | COc1ccc(-n2cc(C#N)c(=O)n(Cc3cccc(C(F)(F)F)c3C)c2=O)cc1OC [US9695131, 9]
31 | 1590 nM | COC(=O)C(COC(C)(C)C)NC(=O)c1cn(-c2ccc(N3CCNC3=O)cc2)c(=O)n(Cc2cccc(C(F)(F)F)c2C)c1=O (centres undefined) [US9695131, 60]
32 | 25 nM | Cc1c(Cn2c(=O)c(C(=O)NC(C)C(=O)O)cn(-c3ccc(N4CCNC4=O)cc3)c2=O)cccc1C(F)(F)F (racemic) [US9695131, 45]
33 | 48 nM | Cc1c(Cn2c(=O)c(C#N)cn(-c3ccc(N4CCNC4=O)cc3)c2=O)cccc1C(F)(F)F [US9695131, 4]
34 | 4.2 nM | Cc1c(Cn2c(=O)c(C(=O)NC(C)C(=O)O)cn(-c3ccc4c(c3)C(C)(C)C(=O)N4C)c2=O)cccc1C(F)(F)F (racemic) [US9695131, 47]
35 | 19 nM | COc1ccc(-n2cc(-c3noc(=O)[nH]3)c(=O)n(Cc3cccc(C(F)(F)F)c3C)c2=O)cc1OC [US9695131, 36]
36 | 3 nM | Cc1c(Cn2c(=O)c(C(=O)NC3(C(=O)O)CCC3)cn(-c3ccc4c(c3)n(C)c(=O)n4C)c2=O)cccc1C(F)(F)F [US9695131, 51]
37 | 238 nM | Cc1c(Cn2c(=O)c(C(=O)NCC#N)cn(-c3ccc(N4CCNC4=O)cc3)c2=O)cccc1C(F)(F)F [US9695131, 55]
38 | 19 nM | Cc1c(Cn2c(=O)c(C(=O)NC(C)C(=O)O)cn(-c3ccc4c(c3)ncn4C)c2=O)cccc1C(F)(F)F (racemic) [US9695131, 57]
39 | 6.6 nM | Cc1c(Cn2c(=O)c(C#N)cn(-c3ccc4c(c3)n(C)c(=O)n4C)c2=O)cccc1C(F)(F)F [US9695131, 6]
40 | 94 nM | Cc1c(Cn2c(=O)c(C(N)=O)cn(-c3ccc(N4CCNC4=O)cc3)c2=O)cccc1C(F)(F)F [US9695131, 52]
41 | 5.8 nM | Cc1c(Cn2c(=O)c(-c3nnn[nH]3)cn(-c3ccc4c(c3)n(C)c(=O)n4C)c2=O)cccc1C(F)(F)F [US9695131, 19]
42 | 17 nM | Cc1c(Cn2c(=O)c(C(=O)NC(CO)C(=O)O)cn(-c3ccc(N4CCNC4=O)cc3)c2=O)cccc1C(F)(F)F (centres undefined) [US9695131, 61]
43 | 54 nM | CCOC(=O)C(C)(C)NC(=O)c1cn(-c2ccc3c(c2)n(C)c(=O)n3C)c(=O)n(Cc2cccc(C(F)(F)F)c2C)c1=O [US9695131, 48]
44 | 12 nM | COc1ccc(-n2cc(-c3nsc(=O)[nH]3)c(=O)n(Cc3cccc(C(F)(F)F)c3C)c2=O)cc1OC [US9695131, 40]
